Experimental data taken from patent US20180153995A1, “USE OF ANTIMICROBIAL POLYMERS FOR RE-SENSITIZATION OF MICROORGANISMS UPON EMERGENCE OF RESISTANCE TO ANTI-MICROBIAL AGENTS” (Technion Research & Development Foundation Limited, priority 2008, published 2018).
In brackets after ≈: the same amount, converted by molar mass. Numbered stars: 1 amine (or outer) side, 2 acyl side, 3 side chain; on linkers, the order of the positions; unused ones are H or OH. Square brackets hold non-standard residues; d marks the D form. Peptide text beside a SMILES is read from it. * marks the point of attachment. NH(CH2)9CO = O=C(CCCCCCCCCN[*:1])[*:2]; Lauroyl = CCCCCCCCCCCC(=O)*

Experiments:
MRSA 15903 = assay: microbe, parasite or virus in culture; type: cell-based, Staphylococcus aureus
Description: (§1) The fractionary inhibitory (FIC) concentration index for combinations of two antimicrobial agents was calculated as follows: FIC index=FICA+FICB=A/MICA+B/MICB where A and B are the MIC values of agent A and agent B in the combination, MICA and MICB are the MICs of agent A and agent B alone, and FICA and FICB are the FICs of agent A and agent B.
(§2) The FIC indexes were interpreted as follows: less than 0.5 indicates a clear re-sensitizing effect; from 0.5 to 4 indicates a marginal or null re-sensitizing effect; and over 4 indicates antagonism.
Experimental data for FIG. 4 were obtained as follows.

MRSA 15852 = type: cell-based, Staphylococcus aureus; settings: 15852
Description: as §1, §2

ATCC 25923 = assay: microbe, parasite or virus in culture; type: cell-based, Staphylococcus aureus; settings: ATCC 25923
Description: (§3) MICs were determined by microdilution susceptibility testing in 96-well plates (by Nunc) using inocula of 10^5 bacteria per ml. Cell populations were evaluated by optical density measurements at 620 nm and were calibrated against a set of standards. Hundred (100) μl of a bacterial suspension were added to 100 μl of culture medium (control) or to 100 μl of culture medium containing various polymer concentrations in 2-fold serial dilutions. Inhibition of proliferation was determined by optical density measurements at 620 nm after an incubation period of 24 hours at 37° C.

ATCC 29213 = assay: microbe, parasite or virus in culture; type: cell-based, Staphylococcus aureus; settings: ATCC 29213
Description: as §3, §1, §2

MRSA 15918 = assay: microbe, parasite or virus in culture; type: cell-based, Staphylococcus aureus; settings: 15918
Description: as §3, §1, §2

S. aureus ATCC 29213 = assay: microbe, parasite or virus in culture
Description: In parallel, MIC evolution was compared concomitantly for each new sub-culture, using bacteria harvested from control wells (wells cultured without antimicrobial agent from the previous sub-culture). The relative MIC was calculated for each experiment from the ratio of MIC obtained for subculture “n” to that obtained for first-time exposure.
The relative MIC was determined as the normalized ratio of the MIC obtained for a given subculture to the MIC of the control.
MICs were determined by microdilution susceptibility testing in 96-well plates using inocula of 10^5 bacteria per ml. Cell populations were evaluated by optical density measurements at 600 nm and were calibrated against a set of standards.
In parallel, MIC evolution was compared concomitantly for each new generation, using bacteria harvested from control wells (wells cultured without antimicrobial agent from the previous generation). The relative MIC was calculated for each experiment from the ratio of MIC obtained for subculture “n” to that obtained for first-time exposure. […] MICs were determined by microdilution susceptibility testing in 96-well plates. Cell populations were evaluated by optical density measurements at 600 nm and were calibrated against a set of standards.

E. coli 16327 = assay: microbe, parasite or virus in culture; settings: 16327
Description: as §3
100 μl of a bacterial suspension were added to 100 μl of culture medium (control) or to 100 μl of culture medium containing various antibiotic and C14(9-ene)KKNC12KNH2 (SEQ ID NO: 5) concentrations in 2-fold serial dilutions. Inhibition of proliferation was determined by optical density measurements at 620 nm after an incubation period of 24 hours at 37° C.

E. coli CI14213 = type: cell-based, Escherichia coli
Description: as §3

[1] = system: E. coli K-12 efflux knockout mutant; type: cell-based, Escherichia coli; settings: E. coli K-12 strain with decreased levels of efflux pumps
Description: as §3

[2] = system: E. coli K-12 resistant wild type; type: cell-based, Escherichia coli; settings: E. coli K-12 multi-resistant wild type
Escherichia coli strains = type: cell-based; settings: isogenic pair of E. coli K-12 strains
Description: as §3

[3] = system: various strains of S. aureus, E. coli P. aeruginosa, P. mirabilis and S. maltophila; type: cell-based; settings: strain not stated
Description: Antibacterial activity was determined using various strains of S. aureus, E. coli P. aeruginosa, P. mirabilis and S. maltophila, cultured in LB medium (10 grams/liter trypton, 5 grams/liter yeast extract, 5 grams/liter NaCl, pH 7.4). Bacterial strains include susceptible strains of Staphylococcus aureus, Pseudomonas aeruginosa, Bacillus cereus and Escherichia coli (ATCC, American Type Culture Collection), as well as antibiotic-resistant strains such as oxacillin-resistant Staphylococcus aureus (ORSA) and methicillin-resistant Staphylococcus aureus (MRSA).
as §3

CCCCCCC=CCCCC(=O)N[C@@H](CCCCN)C(=O)N[C@@H](CCCCN)C(=O)NCCCCCCCCCCCC(=O)N[C@@H](CCCCN)C(N)=O [C12(5-ene)KKNC12KNH2]
MIC (MRSA 15903; 15903): 3.1 to 6.2 µM | MIC of polymer (MRSA 15903; 15903): 6.2 µM | fractionary inhibitory concentration (FIC) index (MRSA 15903; MRSA 15903, oxacillin + polymer at optimal concentration 2.1 μM): 0.35 | optimal re-sensitization polymer concentration (MRSA 15903; MRSA 15903, with oxacillin): 2.1 µM | MIC (MRSA 15852): 6.2 µM | MIC (ATCC 25923): 3.1 µM (≈ 2.42 µg/mL) | MIC (ATCC 29213): 6.2 µM | MIC (MRSA 15918): 6.2 µM | mean polymer's MIC (S. aureus ATCC 29213; ATCC 29213): 4.9 µg/mL | effect on relative MIC of now-resistant strain (S. aureus ATCC 29213; now-resistant ATCC 29213, polymer alone or oxacillin + sub-MIC polymer): decreased the relative MIC

CCCCCCCCCCCC(=O)N[C@@H](CCCCN)C(=O)N[C@@H](CCCCN)C(=O)NCCCCCCCCCC(=O)N[C@@H](CCCCN)C(=O)N[C@@H](CCCCN)C(=O)NCCCCCCCCCC(=O)N[C@@H](CCCCN)C(=O)N[C@@H](CCCCN)C(=O)NCCCCCCCCCC(=O)N[C@@H](CCCCN)C(N)=O [C12K(KNC10K)3NH2] (Lauroyl-KK[NH(CH2)9CO]KK[NH(CH2)9CO]KK[NH(CH2)9CO]K-NH2)
MIC of polymer (MRSA 15903; 15903): 6.25 µM | MIC of polymer (E. coli 16327): 3.1 µM

CCCCCCCCCCCC(=O)N[C@@H](CCCCN)C(=O)NCCCCCCCC(=O)N[C@@H](CCCCN)C(=O)NCCCCCCCC(=O)N[C@@H](CCCCN)C(=O)NCCCCCCCC(=O)N[C@@H](CCCCN)C(=O)NCCCCCCCC(=O)N[C@@H](CCCCN)C(=O)NCCCCCCCC(=O)N[C@@H](CCCCN)C(N)=O [C12K(NC8K)5NH2]
MIC of polymer (E. coli CI14213; CI14213): 6.2 µM | re-sensitizing effect of polymer on oxacillin (E. coli CI14213; E. coli CI14213, polymer well below MIC (up to ⅛ MIC), 24 hours): endowed potency to oxacillin | effect of polymer on antibiotic MICs [1]: not altered significantly | effect of polymer on antibiotics potency [2]: enhanced antibiotics potency | MIC of polymer (Escherichia coli strains): 3.125 µg/mL

CCCCC=CCCCCCCCC(=O)N[C@@H](CCCCN)C(=O)N[C@@H](CCCCN)C(=O)NCCCCCCCCCCCC(=O)N[C@@H](CCCCN)C(N)=O [C14(9-ene)KKNC12KNH2]
MIC of polymer per se [3]: 6.2 µM

CCCCCCC=CCCCCCCCC(=O)N[C@@H](CCCCN)C(=O)N[C@@H](CCCCN)C(=O)NCCCCCCCCCCCC(=O)N[C@@H](CCCCN)C(N)=O [C16(9-ene)KKNC12KNH2]
MIC of polymer per se [3]: 6.2 µM
